Test results published in patent publication US4150970A, “Growth regulator for plants” (Board of Trustees of Michigan State University, priority 1977, dated 1979).
≈ marks a conversion by molar mass, not a printed value. Entries after “also recorded” stand apart in the source; their conditions may differ.

How the values were obtained:
IR-8 rice seedlings = assay: Single versus multiple applications on rice seedlings (Example XI); format: in vivo
Method: (§1) Rice seed cv. IR-8, or Starbonnet was surface treated with 0.1 percent mercuric chloride and planted in 77 cc plastic cups containing vermiculite and watered with one-fourth Hoagland's nutrient solution containing 3 mM of nitrogen at pH 5.0. After 10 days, seedlings were transplanted to 220 cc specimen cups wrapped in aluminum foil and containing 180 cc of the same Hoagland's nutrient solution. Four seedlings were suspended in the solution with a sponge rubber disc. The plants were grown under a 8 h night at 25° C. and a 16 h day at 30° C. with 21 and 8 μwatts per cm^2 in the blue and red spectra respectively. In the test with varying light intensity the high light intensity was 30 13 and the low intensity was 15 and 8 μwatts per cm^2 for the blue and red spectra respectively. The nutrient solution was renewed every 2 or 3 days. After one week the plants were sorted for size and similar sized plants assigned to the same block for the experiment. Prior to the initiation of a test the plants in each cup were assigned treatment numbers by use of a random number table. […] Sixteen hours prior to a test the foil wrapped cups were tared, and filled with one-half Hoaglands solution containing 6 mM nitrogen. Eighteen μl of chloroform or chloroform containing 1.8 μg triacontanol were placed on 2 cm^2 of Whatman No. 1 filter papers, air dried and placed in the specimen cups. This concentration of 10 μg triacontanol/liter was used for all tests described in the following Examples except where specifically indicated to the contrary. Immediately prior to the test the cups were all brought up to 180 ml. including a set of cups without plants to measure evaporation.
Water uptake was measured by weighing the cups after removal of the plants and subtracting the tare and the water evaporated. For tests continued for more than one day, the solution used was measured every 3 days and new Hoagland's added and the pH maintained at 5.0 with sulfuric acid.
In this Example, the experiment determined the growth of "IR-8" rice seedlings by comparing a single application of triacontanol with multiple applications of triacontanol. Triacontanol was applied at the beginning of each indicated period.

[1] = test system: Starbonnet rice seedlings; assay: Growth analysis of Starbonnet rice seedlings under different light intensities (Example VI); format: in vivo; parameters: key to NAR: mg plant weight per cm^2 leaf area per day; RGR / LAR: unit not given here
Method: as §1
The plants were disected at harvest into shoots and roots. The expanded leaves were cut at the ligule and the newest leaf at the point it entered the sheath. The surface area of expanded leaves were measured using a Lambda Model LI-3000 planimeter. The plants were dried to constant weight in an oven at 100° C. and the roots, expanded leaves, and sheaths were weighed separately.
Growth analysis was conducted according to Evans (1972). The Net Assimulation Rate (NAR) is the increase in plant weight per unit of leaf area over time interval where: W=total weight per plant in mg, T=time in days, and L=leaf area in cm^2. [formula]
The relative growth rate (RGR) is the increase in plant weight per unit of original weight over a time interval and is obtained by: [formula]
The leaf area ratio is the ratio of leaf area to […] over a time interval. [formula]
This Example presents a growth analysis of `Starbonnet` rice seedlings treated with triacontanol under different light intensities, "Low" and "High" intensities are defined above, and in the Table VI these designations represent the light to which each plant was subjected.

field corn = assay: Foliar spray and soil drench on field corn (Example IX); format: in vivo; settings: for % increase: dry weight
Method: To determine the effect of triacontanol methods of treatment, differing amounts of triacontanol were applied to field corn by foliar spray and by drenching the soil. The plants were twelve days old at the time of treatment, and the plants were harvested when forty-two days old.
0.01 mg/l triacontanol applied by soil drench corresponds to 0.4 grams pe
acre. 0.10 mg/l corresponds to 4 grams per acre.

[2] = test system: Barley callus cell culture; assay: Growth of barley callus cell culture (Example XIX); format: cell-based, interspecific cross of Hordeum vulgare and Hordeum jubatum
Method: (§2) Cell cultures were separately grown in disposable petri dishes.
5. Barley (interspecific cross of Hordeum vulgare and Hordeum jubatum)
(§3) The cultures were grown on the basic medium of mineral salts described by Linsmaier and Skoog (Physiol. Plant, […] (1965)). Vitamins and hormones varied for each tissue (Table X-1) to maintain the tissues in an undifferentiated state. For all of the tissues inositol was 100 mg/liter and agar 1%. Sucrose was 3% for all but the bean which was 2%.
(§4) Callus was produced from pith for tobacco, potato and tomato. Bean callus was produced from hypocotyl sections and barley callus from immature ovarian tissue. Subcultures were maintained on the appropriate media.
(§5) Stock solutions of triacontanol were prepared at a concentration of 100 μg/ml. The solvent used was glass distilled benzene. The lower concentrations were obtained by serial dilutions. Treatments were applied to 4.5 cm Whatman #1 filter paper disks in 100 μl aliquots. Controls received 100 μl of glass distilled benzene. The solvent was evaporated for approximately 15 minutes and the filter papers were then placed on the agar medium.
(§6) Callus tissue was then broken into pieces of approximately the same size (10 mg) and placed in the petri dishes on the treated filter paper (one piece per dish). For experiments conducted in the light the intensity was approximately 2.0 microwatts/cm^2 -namometer. Fresh weight measurements were made after 12 days of growth.

Solubility = format: physicochemical
[3] = test system: Tomato callus cell culture; assay: Growth of tomato callus cell culture (Example XIX); format: cell-based, Lycopersicon esculentum, var. marglobe
Method: as §2
2. Tomato (Lycopersicon esculentum, var. marglobe)
as §3, §4, §5, §6

[4] = foliar spray, 0.01 mg/l (first line)
[5] = foliar spray, printed 0.01 mg/l (second line)
[6] = printed 10.0 g triacontanol, 12 days

For `CCCCCCCCCCCCCCCCCCCCCCCCCCCCCCO` [Triacontanol, 1-triacontanol], the Dry wt (IR-8 rice seedlings; multiple applications) was 286 mg/seedling, the “Water uptake per day” value (IR-8 rice seedlings; multiple applications, time period 0-2) was 14.2 mL and the “Water uptake per day” value (IR-8 rice seedlings; multiple applications, time period 3-5) was 22.6 mL. The “Water uptake per day” value (IR-8 rice seedlings; multiple applications, time period 6-7) was 33.5 mL, the “Water uptake per day” value (IR-8 rice seedlings; multiple applications, time period 8-9) was 40.2 mL and the “Water uptake per day” value (IR-8 rice seedlings; multiple applications, time period 10-12, two cups dry at harvest) was 57.0 mL. For the same compound, the Dry wt (IR-8 rice seedlings; single application) was 273 mg/seedling, the “Water uptake per day” value (IR-8 rice seedlings; single application, time period 0-2) was 13.9 mL and the “Water uptake per day” value (IR-8 rice seedlings; single application, time period 3-5) was 21.0 mL. For the same compound, the “Water uptake per day” value (IR-8 rice seedlings; single application, time period 6-7) was 30.0 mL, the “Water uptake per day” value (IR-8 rice seedlings; single application, time period 8-9) was 35.8 mL and the “Water uptake per day” value (IR-8 rice seedlings; single application, time period 10-12, two cups dry at harvest) was 56.6 mL. It also gave an LAR ([1]; high light, 0-4 hours) of 3.31, an NAR ([1]; high light, 0-4 hours) of 6.42 and an RGR ([1]; high light, 0-4 hours) of 0.89. For the same compound, the LAR ([1]; high light, 5-8 hours) was 3.45, the NAR ([1]; high light, 5-8 hours) was 3.96 and the RGR ([1]; high light, 5-8 hours) was 0.57. For the same compound, the LAR ([1]; high light, 9-16 hours) was 3.74, the NAR ([1]; high light, 9-16 hours) was 3.19 and the RGR ([1]; high light, 9-16 hours) was 0.50. The “dry weight accumulation per leaf area at low light versus control at high light” value ([1]; low light intensities) was “as much dry weight per cm^2 of leaf area at low light intensities as the control plants did at the higher light intensity; also recorded: as much dry weight per unit of leaf area at low light intensities as the control plants did at higher light intensities”, the LAR ([1]; low light, 0-4 hours) was 3.76 and the NAR ([1]; low light, 0-4 hours) was 3.77. It also gave an RGR ([1]; low light, 0-4 hours) of 0.59, an LAR ([1]; low light, 5-8 hours) of 3.90 and an NAR ([1]; low light, 5-8 hours) of 4.14. It also gave an RGR ([1]; low light, 5-8 hours) of 0.67, an LAR ([1]; low light, 9-16 hours) of 4.20 and an NAR ([1]; low light, 9-16 hours) of 2.81. The RGR ([1]; low light, 9-16 hours) was 0.49, the “application rate for maximum effectiveness” value (field corn; corn seedlings) was “about 4 grams per acre” and the effective application rate (field corn; corn seedlings) was “about 0.4 grams per acre”. The “Dry Weight” value (field corn; [4]) was 408 mg/shoot, the “% increase” value (field corn; [4]) was 22% and the “Dry Weight” value (field corn; [5]) was 463 mg/shoot. For the same compound, the “% increase” value (field corn; [5]) was 39%, the “Dry Weight” value (field corn; soil drench, 0.01 mg/l) was 426 mg/shoot and the “% increase” value (field corn; soil drench, 0.01 mg/l) was 22%. The “Dry Weight” value (field corn; soil drench, 0.10 mg/l) was 519 mg/shoot, the “% increase” value (field corn; soil drench, 0.10 mg/l) was 48% and the “growth of in vitro cell cultures” value ([2]; barley) was “significant increases in growth”. For the same compound, the “% of control” value [2, 6] was 167 % of control, the Fresh weight [2, 6] was 35.0 and the “solubility in alcohol, qualitative” value (Solubility; alcohol) was “soluble in alcohol”. The “solubility in ether and benzene, qualitative” value (Solubility; ether and benzene) was “very soluble in ether and benzene”, the “solubility in water, qualitative” value (Solubility; water) was “relatively water insoluble” and the solubility (Solubility; water, read-out: solubility limit in water) was ~0.3 µg/mL (≈ 0.684 µM). For the same compound, the “% of control” value [3, 6] was 140 % of control, the Fresh weight [3, 6] was 16.8 and the “growth of in vitro cell cultures” value ([3]; tomato) was “significant increases in growth”.
